Test results published in patent US6737383B1, “Herbicidal oxadiazolidines” (priority 1999, dated 2004).

Columns and labels:
duck salad = test: Test B flood test duck salad; type: in vivo, Heteranthera limosa; conditions: for Plant response rating, Ducksalad (0 to 10 scale, 0 is no effect, 10 is complete control) / Ducksalad plant response rating (0 to 10 scale, 0 is no effect, 10 is complete control): visual evaluation after twelve to sixteen days; for Ducksalad plant response rating (0 to 10 scale, 0 is no effect, 10 is complete control): under heading Pre-emergence
Method in brief: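 Flood test on plants grown to the 2-leaf stage; treated plants kept in greenhouse twelve to sixteen days, then visually rated against controls on a 0 (no effect) to 10 (complete control) scale.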

soybean = test: Test B pre/postemergence soybean; type: in vivo, Glycine max
Method in brief: (§1)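 Test chemicals in a non-phytotoxic solvent mixture with surfactant were sprayed preemergence onto planted seeds and postemergence onto plants 2 to 18 cm tall (1- to 4-leaf stage). After twelve to sixteen days in a greenhouse, injury was visually rated against untreated controls from 0 (no effect) to 10 (complete control).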

velvetleaf = test: Test B pre/postemergence velvetleaf; type: in vivo, Abutilon theophrasti
Method in brief: as §1

cocklebur = test: Test B pre/postemergence cocklebur; type: in vivo, Xanthium strumarium
Method in brief: as §1

[1] = Postemergence, Rate 62 g/ha, scale 0 to 10, 0 is no effect, 10 is complete control
[2] = Rate 125 g/ha, Postemergence section (flood test species), scale 0 to 10, 0 no effect, 10 complete control
[3] = Postemergence, Rate 250 g/ha, scale 0 to 10, 0 no effect, 10 complete control
[4] = Preemergence, Rate 62 g/ha, scale 0 to 10 (0 no effect, 10 complete control)
[5] = Preemergence, Rate 125 g/ha, scale 0 to 10 (0 no effect, 10 complete control)
[6] = Preemergence, Rate 250 g/ha, scale of 0 to 10 where 0 is no effect and 10 is complete control
[7] = Preemergence, Rate 500 g/ha, scale 0 (no effect) to 10 (complete control)
[8] = Rate 125 g/ha, Postemergence, scale 0 to 10, 0 no effect, 10 complete control
[9] = Rate 500 g/ha, Postemergence, scale 0 to 10, 0 no effect, 10 complete control
[10] = Rate 125 g/ha, Pre-emergence, flood test species, scale 0 to 10 where 0 is no effect and 10 is complete control
[11] = Rate 250 g/ha, Pre-emergence, flood-test species, scale 0 to 10, 0 is no effect, 10 is complete control
[12] = Rate 500 g/ha, Pre-emergence, flood test species, scale 0 to 10 (0 no effect, 10 complete control)
[13] = Postemergence, Rate 125 g/ha, scale 0 to 10, 0 is no effect, 10 is complete control
[14] = Preemergence, Rate 62 g/ha, scale of 0 to 10 where 0 is no effect and 10 is complete control
[15] = Preemergence, Rate 500 g/ha, scale of 0 to 10 where 0 is no effect and 10 is complete control
[16] = Rate 62 g/ha, Postemergence, scale 0 to 10 (0 no effect, 10 complete control)
[17] = Rate 62 g/ha, flood test species, Pre-emergence
[18] = Rate 125 g/ha, flood test species
[19] = Rate 250 g/ha, Pre-emergence (flood test species), scale 0 to 10, 0 is no effect, 10 is complete control
[20] = Postemergence, Rate 250 g/ha, scale 0 to 10
[21] = Preemergence, Rate 125 g/ha, scale of 0 to 10 where 0 is no effect and 10 is complete control
[22] = Preemergence, Rate 250 g/ha, scale 0 to 10, 0 is no effect, 10 is complete control
[23] = Preemergence, Rate 500 g/ha, scale 0 to 10, 0 is no effect, 10 is complete control
[24] = Rate 125 g/ha, Postemergence, scale 0 to 10, 0 is no effect, 10 is complete control
[25] = Postemergence, Rate 125 g/ha, scale of 0 to 10 where 0 is no effect and 10 is complete control
[26] = Preemergence, Rate 250 g/ha, scale 0 to 10 (0 no effect, 10 complete control)
[27] = Rate 500 g/ha, Postemergence, scale 0 to 10, 0 is no effect, 10 is complete control
[28] = Preemergence, Rate 62 g/ha, scale 0 to 10, 0 is no effect, 10 is complete control

Cc1cc(C)c(-n2c(=O)on(C(=O)N(c3ccc(F)cc3)C(C)C)c2=O)c(C)c1 [Compound 60]
Ducksalad plant response rating (duck salad; [1]): 0
Ducksalad plant response rating (duck salad; [2]): 0
Ducksalad plant response rating (duck salad; Rate 500 g/ha, listed under Postemergence (flood test species), scale 0 to 10, 0 no effect, 10 complete control): 0
Ducksalad plant response rating (duck salad; flood test, listed under Postemergence, Rate 250 g/ha, scale 0 to 10, 0 no effect, 10 complete control): 0
Soybean plant response rating (soybean; [1]): 2
Soybean plant response rating (soybean; [3]): 3
Soybean plant response rating (soybean; [4]): 0
Plant response rating, Soybean (soybean; [5]): 0
Plant response rating, Soybean (soybean; [6]): 0
Soybean plant response rating (soybean; [7]): 0
Soybean plant response rating (soybean; [8]): 3
Soybean plant response rating (soybean; [9]): 3
Velvetleaf plant response rating (velvetleaf; [1]): 0
Velvetleaf plant response rating (velvetleaf; [3]): 0
Velvetleaf plant response rating (velvetleaf; [4]): 0
Plant response rating, Velvetleaf (velvetleaf; [5]): 0
Plant response rating, Velvetleaf (velvetleaf; [6]): 0
Velvetleaf plant response rating (velvetleaf; [7]): 0
Velvetleaf plant response rating (velvetleaf; [8]): 0
Velvetleaf plant response rating (velvetleaf; [9]): 0
Cocklebur plant response rating (cocklebur; [1]): 0
Cocklebur plant response rating (cocklebur; [3]): 0
Cocklebur plant response rating (cocklebur; [4]): 0
Plant response rating, Cocklebur (cocklebur; [5]): 0
Cocklebur plant response rating (cocklebur; [8]): 0
Cocklebur plant response rating (cocklebur; [9]): 0

CC(C)N(C(=O)n1oc(=O)n(-c2ccc3ccccc3c2)c1=O)c1ccc(Cl)cc1 [Compound 333]
Ducksalad plant response rating (duck salad; Pre-emergence, Rate 1000 g/ha, scale 0 to 10 (0 no effect, 10 complete control)): 0
Ducksalad plant response rating (duck salad; [10]): 0
Ducksalad plant response rating (duck salad; [11]): 0
Ducksalad plant response rating (duck salad; [12]): 0
Plant response rating, Soybean (soybean; [13]): 2
Soybean plant response rating (soybean; [14]): 0
Soybean plant response rating (0 to 10 scale) (soybean; Preemergence, Rate 125 g/ha): 0
Soybean plant response rating (soybean; [6]): 0
Soybean plant response rating (soybean; [15]): 0
Soybean plant response rating (soybean; [16]): 2
Plant response rating, Soybean (soybean; [9]): 4
Plant response rating, Velvetleaf (velvetleaf; [13]): 0
Velvetleaf plant response rating (velvetleaf; [14]): 0
Velvetleaf plant response rating (0 to 10 scale) (velvetleaf; Preemergence, Rate 125 g/ha): 0
Velvetleaf plant response rating (velvetleaf; [6]): 0
Velvetleaf plant response rating (velvetleaf; [15]): 0
Velvetleaf plant response rating (velvetleaf; [16]): 0
Plant response rating, Velvetleaf (velvetleaf; [9]): 0
Plant response rating, Cocklebur (cocklebur; [13]): 0
Cocklebur plant response rating (cocklebur; [14]): 0
Cocklebur plant response rating (0 to 10 scale) (cocklebur; Preemergence, Rate 125 g/ha): 0
Cocklebur plant response rating (cocklebur; [6]): 0
Cocklebur plant response rating (cocklebur; [15]): 0
Cocklebur plant response rating (cocklebur; [16]): 0
Plant response rating, Cocklebur (cocklebur; [9]): 0

Cc1ccc(N(C(=O)n2oc(=O)n(-c3ccc4ccccc4c3)c2=O)C(C)C)cc1 [Compound 334]
Ducksalad plant response rating (duck salad; Rate 62 g/ha, headed Pre-emergence (flood test species), scale 0 to 10 (0 no effect, 10 complete control)): 0
Ducksalad plant response rating (duck salad; [10]): 0
Ducksalad plant response rating (duck salad; [11]): 0
Ducksalad plant response rating (duck salad; [12]): 0
Plant response rating, Soybean (soybean; [13]): 1
Soybean plant response rating (soybean; [14]): 0
Soybean plant response rating (0 to 10 scale) (soybean; Preemergence, Rate 125 g/ha): 0
Soybean plant response rating (soybean; [6]): 0
Soybean plant response rating (soybean; [15]): 0
Soybean plant response rating (soybean; [16]): 1
Plant response rating, Soybean (soybean; [9]): 2
Plant response rating, Velvetleaf (velvetleaf; [13]): 0
Velvetleaf plant response rating (velvetleaf; [14]): 0
Velvetleaf plant response rating (0 to 10 scale) (velvetleaf; Preemergence, Rate 125 g/ha): 0
Velvetleaf plant response rating (velvetleaf; [6]): 0
Velvetleaf plant response rating (velvetleaf; [15]): 0
Velvetleaf plant response rating (velvetleaf; [16]): 0
Plant response rating, Velvetleaf (velvetleaf; [9]): 0
Plant response rating, Cocklebur (cocklebur; [13]): 0
Cocklebur plant response rating (cocklebur; [14]): 0
Cocklebur plant response rating (0 to 10 scale) (cocklebur; Preemergence, Rate 125 g/ha): 0
Cocklebur plant response rating (cocklebur; [6]): 0
Cocklebur plant response rating (cocklebur; [15]): 0
Cocklebur plant response rating (cocklebur; [16]): 0
Plant response rating, Cocklebur (cocklebur; [9]): 0

CC(C)N(C(=O)n1oc(=O)n(C(C)C(=O)N(C)C)c1=O)c1ccccc1 (stereo not shown) [Compound 479]
Plant response rating, Ducksalad (0 to 10 scale, 0 is no effect, 10 is complete control) (duck salad; [17]): 0
Ducksalad plant response rating (0 to 10 scale, 0 is no effect, 10 is complete control) (duck salad; [18]): 0
Ducksalad plant response rating (duck salad; [19]): 0
Ducksalad plant response rating (duck salad; [12]): 0
Soybean plant response rating (soybean; [20]): 3
Plant response rating, Soybean (soybean; [14]): 0
Plant response rating, Soybean (soybean; [21]): 0
Soybean plant response rating (soybean; [22]): 0
Soybean plant response rating (soybean; [23]): 0
Soybean plant response rating (soybean; [16]): 1
Soybean plant response rating (soybean; [24]): 1
Velvetleaf plant response rating (velvetleaf; [20]): 0
Plant response rating, Velvetleaf (velvetleaf; [14]): 0
Plant response rating, Velvetleaf (velvetleaf; [21]): 0
Velvetleaf plant response rating (velvetleaf; [22]): 1
Velvetleaf plant response rating (velvetleaf; [23]): 5
Velvetleaf plant response rating (velvetleaf; [16]): 0
Velvetleaf plant response rating (velvetleaf; [24]): 0
Cocklebur plant response rating (cocklebur; [20]): 0
Cocklebur plant response rating (cocklebur; Postemergence, Rate 500 g/ha, scale of 0 to 10 where 0 is no effect and 10 is complete control): 0
Plant response rating, Cocklebur (cocklebur; [14]): 0
Plant response rating, Cocklebur (cocklebur; [21]): 0
Cocklebur plant response rating (cocklebur; [22]): 0
Cocklebur plant response rating (cocklebur; [16]): 0
Cocklebur plant response rating (cocklebur; [24]): 0

CC(C)N(C(=O)n1oc(=O)n(CC2CCCCO2)c1=O)c1ccccc1 (stereo not shown) [Compound 659]
Plant response rating, Ducksalad (0 to 10 scale, 0 is no effect, 10 is complete control) (duck salad; [17]): 0
Ducksalad plant response rating (0 to 10 scale, 0 is no effect, 10 is complete control) (duck salad; [18]): 0
Ducksalad plant response rating (duck salad; [19]): 0
Ducksalad plant response rating (duck salad; Rate 500 g/ha, Pre-emergence section of Table B, 0 to 10 scale (0 no effect, 10 complete control)): 0
Plant response rating, Soybean (soybean; [1]): 2
Soybean plant response rating (soybean; [25]): 3
Soybean plant response rating (soybean; [14]): 0
Soybean plant response rating (soybean; [21]): 0
Plant response rating, Soybean (soybean; [26]): 0
Plant response rating, Soybean (soybean; [15]): 2
Soybean plant response rating (soybean; [27]): 7
Plant response rating, Velvetleaf (velvetleaf; [1]): 0
Velvetleaf plant response rating (velvetleaf; [25]): 3
Velvetleaf plant response rating (velvetleaf; [14]): 0
Velvetleaf plant response rating (velvetleaf; [21]): 0
Plant response rating, Velvetleaf (velvetleaf; [26]): 6
Plant response rating, Velvetleaf (velvetleaf; [15]): 7
Velvetleaf plant response rating (velvetleaf; [27]): 6
Plant response rating, Cocklebur (cocklebur; [1]): 0
Cocklebur plant response rating (cocklebur; [25]): 0
Cocklebur plant response rating (cocklebur; Postemergence, Rate 250 g/ha, scale of 0 to 10, 0 is no effect, 10 is complete control): 0
Cocklebur plant response rating (cocklebur; [14]): 0
Cocklebur plant response rating (cocklebur; [21]): 0
Plant response rating, Cocklebur (cocklebur; [26]): 0
Plant response rating, Cocklebur (cocklebur; [15]): 0
Cocklebur plant response rating (cocklebur; [27]): 2

Cc1cccc(C)c1-n1c(=O)on(C(=O)N(c2ccc(Cl)cc2)C(C)C)c1=O [Compound 47]
Ducksalad plant response rating (duck salad; [2]): 0
Ducksalad plant response rating (duck salad; [10]): 0
Ducksalad plant response rating (duck salad; Rate 250 g/ha, headed Pre-emergence (flood test species), scale 0 to 10 (0 no effect, 10 complete control)): 0
Plant response rating, Ducksalad (duck salad; Rate 500 g/ha, headed Pre-emergence (flood test species), scale 0 to 10 (0 no effect, 10 complete control)): 0
Ducksalad plant response rating (duck salad; Rate 1000 g/ha, Pre-emergence (as headed), scale 0 to 10): 3
Ducksalad plant response rating (duck salad; Rate 2000 g/ha, Pre-emergence (as headed), scale 0 to 10): 0
Soybean plant response rating (soybean; [1]): 2
Soybean plant response rating (soybean; [3]): 2
Plant response rating, Soybean (soybean; [28]): 0
Plant response rating, Soybean (soybean; [5]): 0
Plant response rating, Soybean (soybean; [6]): 0
Soybean plant response rating (soybean; [7]): 0
Soybean plant response rating (soybean; [8]): 2
Soybean plant response rating (soybean; [9]): 2
Velvetleaf plant response rating (velvetleaf; [1]): 0
Velvetleaf plant response rating (velvetleaf; [3]): 0
Plant response rating, Velvetleaf (velvetleaf; [28]): 0
Plant response rating, Velvetleaf (velvetleaf; [5]): 0
Plant response rating, Velvetleaf (velvetleaf; [6]): 0
Velvetleaf plant response rating (velvetleaf; [7]): 0
Velvetleaf plant response rating (velvetleaf; [8]): 0
Velvetleaf plant response rating (velvetleaf; [9]): 0
Cocklebur plant response rating (cocklebur; [1]): 0
Cocklebur plant response rating (cocklebur; [3]): 2
Plant response rating, Cocklebur (cocklebur; [28]): 0
Plant response rating, Cocklebur (cocklebur; [5]): 0
Plant response rating, Cocklebur (cocklebur; [6]): 0
Cocklebur plant response rating (cocklebur; [7]): 0
Cocklebur plant response rating (cocklebur; [8]): 0
Cocklebur plant response rating (cocklebur; [9]): 2
